Entries after “also recorded” stand apart in the source; their conditions may differ. Values belong to the molecule of their own block, whether it stands above or below them.
Tests used:
normal rats [1] = assay: Kinetic study of Agr 529 at 3 mg/kg iv in normal rats; format: in vivo, rat
Protocol: (§1) In normal animals, the fatty acids, triglycerides and cholesterol are determined by automated enzymatic reactions.
c) Kinetic study of Agr 529 in an amount of 3 mg/kg iv (FIG. V, VI, VII, VIII).

normal rats [2] = assay: Normal rats, intravenous administration, plasma lipids; format: in vivo, rat
Protocol: as §1
The animals are distributed into six lots of five animals each:
a control lot receiving the placebo (0.9% isotonic saline solution),
five treated lots receiving 0.03, 0.1, 0.3, 1 and 3 mg/kg of Agr 529 respectively by intravenous injection.
The animals are sacrificed two hours after the injection of the product.

[3] = test system: hypertriglyceridemia provoked by Triton WR1339 in Fauve de Bourgogne rabbits; assay: Triton-provoked hypertriglyceridemia in rabbits, Agr 529 iv; format: in vivo, rabbit
Protocol: Fauve de Bourgogne rabbits of an average weight of 2 kg (EGAV).
(§2) The hypertriglyceridemia is obtained by the intravenous (iv) injection of Triton WR1339 (tyloxapol) in a dose of 600 mg/kg, obtained from the Sigma Chemical Company, N. T 8761 (marginal vein of the ear of the rabbit, jugular vein or vein of the penis of the rat, under slight ether anesthesia, the pentobarbital which attaches itself on the A1 receptors being capable of interacting with the molecules used (Lhose et al., 1985). All the animals used had fasted for 15 hours. The blood was collected over heparin, centrifuged for 20 minutes (3000 rpm at 4° C.). In the serum collected, the TG (triglycerides) are determined in accordance with the GPO-PAP method Boeringher Peridochrom® Kit, item 701-882.
(§3) The animals are divided into two lots:
a control lot (6 animals) receiving isotonic saline solution iv in a volume of 0.5 ml/kg two hours before the injection of Triton and the same dose of saline solution as previously.
a treated lot (7 animals) receiving 2 mg/kg of Agr 529 iv in a volume of 0.5 ml/kg two hours before the injection of Triton and a new dose of Agr 529 (2 mg/kg).
A sampling of arterial blood, two hours after the injection of the Triton, permits determination of the triglycerides.

[4] = test system: HMG CoA reductase (β-hydroxy-β-methylglutaryl CoA reductase); assay: In vitro study on microsomal fraction of liver: HMG CoA reductase activity; format: biochemical
[5] = test system: hypertriglyceridemia provoked by Triton WR1339 in Sprague-Dawley rats; assay: Triton-provoked hypertriglyceridemia in rats, per os; format: in vivo, rat; conditions: for Triglycerides: Triton controls 7.53 ± 0.49; for triglycerides plasma concentrations: per os in doses of 3 and 30 mg/kg; for triglycerides plasma concentrations / action on the increase in the circulating triglycerides: Triton model; for action on the increase in the circulating triglycerides: per os
Protocol: (§4) Sprague-Dawley male white rats, Iffa Credo, of an average weight of 260-270 g.
as §2
The animals are divided into six lots:
one control-control lot receiving per os isotonic saline solution in a volume of 0.2 ml/100 g of rat 30 minutes before the iv injection of isotonic saline solution.
a Triton control lot receiving per os isotonic saline solution 30 minutes before the iv injection of Triton.
an Agr 529 lot (3 mg/kg in a volume of 0.2 ml/100 g of rat), 30 minutes before the iv injection of Triton.
one lot receiving, under the same conditions, 30 mg/kg of Agr 529 per os.
two lots receiving, under the same conditions as previously, 3 and 30 mg/kg of Agr 540 per os.

normal rats [6] = assay: Normal rats, intraperitoneal administration, plasma lipids; format: in vivo, rat
Protocol: as §1
The animals are distributed in five lots of five animals each:
[…] receiving 0.1, 0.3, and 3 mg/kg.
The animals are sacrificed two hours after the administration of the Agr 529.

normal animals = assay: Administration in normal animals, hypolipemia (conclusion, route not stated); format: in vivo
Protocol: as §1

[7] = test system: hypertriglyceridemia provoked by Triton WR1339 in Sprague-Dawley rats; assay: Triton-provoked hypertriglyceridemia in rats, intraperitoneal route; format: in vivo, rat
Protocol: as §4, §2, §3
a control lot (4 animals) receiving isotonic saline solution in a volume of 0.2 ml/100 g of rat by intraperitoneal injection (ip), 20 minutes before the injection of the Triton (iv).
a treated lot (5 animals) receiving 2 mg/kg of Agr 529 ip, under the same conditions as the controls.
Two hours later, the animals are sacrificed by decapitation; the blood is collected by the method previously described, for determination of the triglycerides.

[8] = test system: ACAT (cholesterol-O-acyl transferase); assay: In vitro study on microsomal fraction of liver: ACAT activity; format: biochemical; conditions: 'the same' = no action
[9] = report submitted on Agr 529; cited from earlier work
[10] = rats, 30 mg/kg P.O. + Triton 600 mg/kg iv

stability towards adenosine deaminase (inferred from long duration of action) (normal rats [1]; inferred in vivo): not destroyed by the adenosine deaminase | hyperglycemia (normal rats [2]; 3 mg/kg iv): hyperglycemia is furthermore noted | action on the activity of the HMG CoA reductase [4]: no action | hyperglycemia (normal rats [6]; 0.3 mg/kg intraperitoneal): hyperglycemia is no longer found | action on the activity of ACAT [8]: The same is true
SMILES: NC(=O)CCCNc1ncnc2c1ncn2[C@@H]1O[C@H](CO)[C@@H](O)[C@H]1O [Agr 529, (N6-3-carboxamido-propyl) adenosine]
time after injection at which the hypolipemizing effect starts to appear (normal rats [1]): 30 min | time of maximum hypolipemizing effect (normal rats [1]): maximum at the end of two hours; also recorded: maximum effect at two hours | concentrations of fatty acids, triglycerides, total cholesterol and phospholipides (normal rats [1]; kinetic study): significant decrease | concentration of plasma triglycerides, total cholesterol, fatty acids and phospholipides (normal rats [2]; 3 mg/kg iv, two hours after the injection, 3 mg/kg): significant decrease | minimal effective dose (normal rats [2]; Rattus norvegicus, 2 h, iv, doses 0.03-3 mg/kg, two hours after injection, read-out: dose from which the hypolipemizing effect appears): ≥ 0.1 mg/kg | plasma concentrations of fatty acids, phospholipides, triglycerides and total cholesterol, dose dependence (normal rats [2]; intravenous administration): decrease, as a function of the doses | cholesterol and triglyceride concentrations of the high density lipoproteins (HDL) (normal rats [2]; route not specified): No action | plasma concentration of the circulating triglycerides ([3]; 2 mg/kg intravenously in rabbits, Triton WR 1339 model): normalized the plasma concentration of the circulating triglycerides | Triglycerides time = 2 ([3]; rabbits n = 7, 2 hours after Agr 529 2 mg/kg iv, before Triton): 3.19 ± 0.38 mmol/L | Triglycerides time = 4 ([3]; rabbits n = 7, 2 hours after second Agr 529 2 mg/kg iv + Triton 600 mg/kg iv): 4.65 ± 0.44 mmol/L | increase of the triglycerides caused by Triton ([3]; rabbits, Agr 529 2 mg/kg iv, control increase 196.5%): 45% | Triglycerides time = 0 ([3]; rabbits, test lot n = 7, time = 0, before first injection of Agr 529 2 mg/kg iv): 1.95 ± 0.34 mmol/L | concentration of triglycerides less than the Triton controls ([3]; rabbits, time 4, Agr 529 2 mg/kg iv): 150% | Triglycerides ([5]; rats, 3 mg/kg P.O. + Triton 600 mg/kg iv): 4.87 ± 0.69 mmols/liter | Triglycerides [5, 10]: 4.64 ± 0.74 mmols/liter | triglycerides plasma concentrations ([5]; rats): return the triglycerides plasma concentrations to normal | action on the increase in the circulating triglycerides ([5]; rats): significantly oppose the increase in the circulating triglycerides | minimal effective dose (normal rats [6]; Rattus norvegicus, ip, 2 h, intraperitoneal, two hours after administration, read-out: dose from which the hypolipemizing effect starts to be significant): ≥ 0.3 mg/kg | hypolipemia, dose dependence (normal rats [6]; intraperitoneal administration): hypolipemia as a function of the doses | hypolipemia (reduction of fatty acids, phospholipides, triglycerides and cholesterol) (normal animals): causes a hypolipemia | plasma concentration of the circulating triglycerides ([7]; 2 mg/kg intraperitoneally, Triton WR 1339 model): normalized the plasma concentration of the circulating triglycerides | Triglycerides ([7]; rats n = 5, Agr 529 2 mg/kg ip + Triton 600 mg/kg iv, two hours later, controls 6.32 ± 0.92): 2.90 ± 0.26 mmols/liter | decrease in the quantity of triglycerides in circulation ([7]; rats, Agr 529 2 mg/kg ip, Triton model, significant (**)): 54%

SMILES: CCC(=O)OC[C@H]1O[C@@H](n2cnc3c(NCCCC(N)=O)ncnc32)[C@H](OC(=O)CC)[C@@H]1OC(=O)CC [Agr 540, 6-(3-carboxamido-propylamino)-9-(2', 3', 5', tripropionyl-β-D-ribosyl) purine]
absorption per os relative to Agr 529 [9]: better absorbed per os | Triglycerides ([5]; rats n = 6, first Agr 540 column, head prints 30 mg/kg P.O. + Triton 600 mg/kg iv): 5.65 ± 0.46 mmols/liter | Triglycerides [5, 10]: 3.67 ± 0.59 mmols/liter | triglycerides plasma concentrations ([5]; rats): return the triglycerides plasma concentrations to normal | action on the increase in the circulating triglycerides ([5]; rats): significantly oppose the increase in the circulating triglycerides | hypolipemia (reduction of fatty acids, phospholipides, triglycerides and cholesterol) (normal animals): causes a hypolipemia

Reference: patent US5322840A, “Treatment of hyperlipemia and hypertriglyceridemia” (Centre d'Etudes Experimentales et Cliniques de …, priority 1990, dated 1994)
